Literature values as cited in patent US9801891B2, “Compositions and methods for lowering intraocular pressure” (ALLERGAN, INC., priority 2009, dated 2017).

Test system: alpha-2 adrenoceptor

For `Brc1c(N=C2NCCN2)ccc2nccnc12.O=C(O)C(O)C(O)C(=O)O` [Brimonidine tartrate, 5-bromo-6-(2-imidazolidinylideneamino) quinoxaline L-tartrate], the “Selectivity for the alpha-2 adrenoceptor over the alpha-1 adrenoreceptor” value is listed as 1000 fold.
